Data from ChEMBL document CHEMBL1201862, “PubChem BioAssay data set” (2004).
The source made the active and inactive calls. Rule as the data show it, for most assays here: actives have a measured EC50 and inactives only a lower limit.

Legend:
Protein skinhead-1 = target: T1, Protein skinhead-1 (Caenorhabditis elegans, UniProt P34707); type: functional
T1 sequence (P34707 whole entry): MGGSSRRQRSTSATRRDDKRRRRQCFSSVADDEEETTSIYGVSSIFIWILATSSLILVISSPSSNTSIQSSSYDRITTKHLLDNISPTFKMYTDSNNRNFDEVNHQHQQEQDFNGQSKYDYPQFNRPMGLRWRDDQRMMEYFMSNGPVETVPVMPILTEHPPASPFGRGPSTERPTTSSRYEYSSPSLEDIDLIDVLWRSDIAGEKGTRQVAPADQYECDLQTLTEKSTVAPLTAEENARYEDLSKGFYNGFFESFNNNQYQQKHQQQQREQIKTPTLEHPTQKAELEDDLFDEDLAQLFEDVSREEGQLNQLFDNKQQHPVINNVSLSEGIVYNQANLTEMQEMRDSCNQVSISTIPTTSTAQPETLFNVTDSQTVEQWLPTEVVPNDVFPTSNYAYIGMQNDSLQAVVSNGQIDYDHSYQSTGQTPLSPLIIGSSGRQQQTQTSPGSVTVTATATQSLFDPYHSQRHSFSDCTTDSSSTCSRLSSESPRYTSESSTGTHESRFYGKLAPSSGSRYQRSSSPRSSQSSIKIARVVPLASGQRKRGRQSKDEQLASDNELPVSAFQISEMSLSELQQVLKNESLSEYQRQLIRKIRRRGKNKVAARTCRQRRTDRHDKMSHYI

[1] = target: Luciferin 4-monooxygenase (Photinus pyralis, UniProt P08659); assay: firefly luciferase enzyme inhibitors, dose response, biochemical, luminescence (AID 1891)
Sequence of Luciferin 4-monooxygenase (P08659 whole entry): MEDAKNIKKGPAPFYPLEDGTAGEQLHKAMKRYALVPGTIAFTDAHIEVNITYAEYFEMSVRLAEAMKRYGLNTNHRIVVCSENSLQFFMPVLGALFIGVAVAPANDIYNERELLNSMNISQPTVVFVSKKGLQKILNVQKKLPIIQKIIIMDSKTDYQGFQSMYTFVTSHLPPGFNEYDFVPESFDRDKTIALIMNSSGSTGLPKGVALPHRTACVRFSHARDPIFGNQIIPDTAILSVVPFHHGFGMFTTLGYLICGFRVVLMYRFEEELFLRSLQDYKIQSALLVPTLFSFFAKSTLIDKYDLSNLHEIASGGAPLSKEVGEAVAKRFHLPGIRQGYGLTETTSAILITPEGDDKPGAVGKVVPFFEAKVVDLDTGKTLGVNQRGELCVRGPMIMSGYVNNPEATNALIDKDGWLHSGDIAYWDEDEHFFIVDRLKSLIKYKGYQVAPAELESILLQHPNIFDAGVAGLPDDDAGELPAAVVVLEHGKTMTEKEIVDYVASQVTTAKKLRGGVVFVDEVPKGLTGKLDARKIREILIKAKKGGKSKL

[2] = Luminescence Cell-Based Dose Confirmation HTS to Identify Inhibitors of Platelet Dense Granule Release. [Related pubchem assays: 1663 (Primary HTS), 1678 (Summary of Project)]; type: functional
[3] = target: FAD-linked sulfhydryl oxidase ALR (Homo sapiens, UniProt P55789); assay: inhibitors of human ALR sulfhydryl oxidase, dose response, biochemical, H2O2 detection, luminescence, cherry-pick (AID 493248)
Sequence of FAD-linked sulfhydryl oxidase ALR (P55789 whole entry): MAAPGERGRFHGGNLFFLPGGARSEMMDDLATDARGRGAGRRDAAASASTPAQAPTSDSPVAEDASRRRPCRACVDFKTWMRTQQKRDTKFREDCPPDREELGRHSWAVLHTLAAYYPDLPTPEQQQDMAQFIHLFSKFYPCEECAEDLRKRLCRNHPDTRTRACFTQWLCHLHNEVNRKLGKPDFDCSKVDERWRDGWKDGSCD

[4] = target: T2, Ubiquitin-conjugating enzyme E2 N (Homo sapiens, UniProt P61088); type: functional;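 also: Dose-response confirmation in a TR-FRET assay detecting UBC13-driven polyubiquitin chain formation, inhibition measured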
T2 sequence (P61088 whole entry): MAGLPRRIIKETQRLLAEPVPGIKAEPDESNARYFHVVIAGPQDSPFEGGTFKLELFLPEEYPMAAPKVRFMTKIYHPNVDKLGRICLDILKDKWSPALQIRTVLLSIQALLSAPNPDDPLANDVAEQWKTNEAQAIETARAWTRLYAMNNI

BJ [5] = assay: cytotoxicity toward BJ-TERT fibroblasts, dose response, cell-based, RAS-independent, luminescence (AID 1933); type: functional; conditions: Homo sapiens
BJ [6] = assay: cells; type: functional, cell-based; conditions: Homo sapiens
BJ [7] = assay: cytotoxicity toward BJ-TERT-LT-ST fibroblasts, dose response, cell-based, RAS-independent, luminescence (AID 1935); type: functional; conditions: Homo sapiens;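 also: BJ fibroblasts immortalized with TERT plus LT and ST oncogenes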
[8] = cytotoxicity toward DRD oncogenic fibroblasts, dose response, cell-based, non-viral oncogenic, luminescence (AID 1934); type: functional; conditions: Homo sapiens
Cytochrome P450 2D6 = Cytochrome P450 2D6 (Homo sapiens, UniProt P10635);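 also: CYP2D6 member of a cytochrome P450 panel assay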
Sequence of Cytochrome P450 2D6 (P10635 whole entry): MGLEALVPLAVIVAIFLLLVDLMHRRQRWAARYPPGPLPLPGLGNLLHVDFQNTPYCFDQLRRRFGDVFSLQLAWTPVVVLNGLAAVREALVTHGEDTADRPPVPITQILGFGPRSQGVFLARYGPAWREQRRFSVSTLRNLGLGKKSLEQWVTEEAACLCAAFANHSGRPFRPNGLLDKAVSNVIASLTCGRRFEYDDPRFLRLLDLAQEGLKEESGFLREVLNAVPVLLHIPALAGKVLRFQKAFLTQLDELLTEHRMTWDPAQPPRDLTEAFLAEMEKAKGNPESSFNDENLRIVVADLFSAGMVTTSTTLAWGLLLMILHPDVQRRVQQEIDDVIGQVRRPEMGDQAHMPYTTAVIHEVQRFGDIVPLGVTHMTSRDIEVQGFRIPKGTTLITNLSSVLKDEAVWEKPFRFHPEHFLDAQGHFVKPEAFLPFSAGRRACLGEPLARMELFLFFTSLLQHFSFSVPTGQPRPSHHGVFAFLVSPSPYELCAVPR

[9] = inhibitors of firefly luciferase expression or activity, dose response, H4 neuroglioma cells, luminescence (AID 1990); type: functional, cell-based
[10] = Luminescence Cell-Based Dose Response HTS to Identify Inhibitors of 5'UTR Stem-Loop Driven Prion Protein mRNA Translation in H4 Neuroglioblastoma Cells. [Related pubchem assays: 1827 (Project Summary), 1813 (Primary HTS)]; type: functional
[11] = inhibitors of SNCA 5'UTR-driven reporter translation, confirmation, H4 neuroglioma cells, luminescence (AID 1988); type: functional, cell-based
[12] = test system: Streptococcus sp. 'group A'; assay: growth inhibition of control SK(-) GAS strain, dose response, counter-screen for streptokinase expression inhibitor project, luminescence, kanamycin, BacTiterGlo, confirmation (AID 1900); type: functional, organism-based
Streptokinase A = target: T3, Streptokinase A (Streptococcus pyogenes serotype M1, UniProt P10520); assay: S. pyogenes streptokinase expression inhibitors, potency, dose response, plasminogen activation absorbance, OD405 (AID 1914); type: functional, Streptococcus pyogenes M1 GAS;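 also: secreted streptokinase activity via plasminogen activation per viability signal from cell pellet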
T3 sequence (P10520 whole entry): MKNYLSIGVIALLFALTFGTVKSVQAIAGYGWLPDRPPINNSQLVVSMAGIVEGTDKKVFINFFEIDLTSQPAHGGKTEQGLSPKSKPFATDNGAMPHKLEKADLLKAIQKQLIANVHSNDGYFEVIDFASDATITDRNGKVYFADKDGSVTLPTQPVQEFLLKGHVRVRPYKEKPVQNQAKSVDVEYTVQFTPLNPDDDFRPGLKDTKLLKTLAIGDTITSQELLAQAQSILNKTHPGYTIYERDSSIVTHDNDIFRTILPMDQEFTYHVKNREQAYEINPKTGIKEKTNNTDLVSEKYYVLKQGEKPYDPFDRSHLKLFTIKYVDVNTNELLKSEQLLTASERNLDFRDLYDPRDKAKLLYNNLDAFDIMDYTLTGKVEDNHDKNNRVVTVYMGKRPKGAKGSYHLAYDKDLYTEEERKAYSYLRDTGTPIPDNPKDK

Streptococcus = assay: Group A Streptococcus viability loss, dose response, counter-screen for streptokinase expression inhibitor project, luminescence, BacTiterGlo (AID 1915); type: functional, organism-based;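 also: potency for reduction of bacterial viability or growth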
H9c2 = assay: cells; type: functional, cell-based; conditions: Rattus norvegicus, H9c2, Myocardium;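 also: confirmatory concentration-response retest of ultra-high-throughput screening hits for modulation of myocardial damage; cell death induced by hydrogen peroxide oxidative stress; compound pretreatment for 60 min then peroxide exposure for 2 h; potency is for protecting the cells against peroxide damage rather than for killing them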
[13] = target: Heat shock protein HSP 90-alpha (Homo sapiens, UniProt P07900); type: functional, organism-based
Paired box protein Pax-8 = Paired box protein Pax-8 (Homo sapiens, UniProt Q06710); assay: inhibitors of PAX8-driven TPO luciferase reporter, dose response, RMG-I cells, cherry-pick (AID 687027); type: functional, cell-based;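 also: luciferase reporter driven by Pax8 target thyroperoxidase promoter measured by SteadyGlo luminescence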
Sequence of Paired box protein Pax-8 (Q06710 whole entry): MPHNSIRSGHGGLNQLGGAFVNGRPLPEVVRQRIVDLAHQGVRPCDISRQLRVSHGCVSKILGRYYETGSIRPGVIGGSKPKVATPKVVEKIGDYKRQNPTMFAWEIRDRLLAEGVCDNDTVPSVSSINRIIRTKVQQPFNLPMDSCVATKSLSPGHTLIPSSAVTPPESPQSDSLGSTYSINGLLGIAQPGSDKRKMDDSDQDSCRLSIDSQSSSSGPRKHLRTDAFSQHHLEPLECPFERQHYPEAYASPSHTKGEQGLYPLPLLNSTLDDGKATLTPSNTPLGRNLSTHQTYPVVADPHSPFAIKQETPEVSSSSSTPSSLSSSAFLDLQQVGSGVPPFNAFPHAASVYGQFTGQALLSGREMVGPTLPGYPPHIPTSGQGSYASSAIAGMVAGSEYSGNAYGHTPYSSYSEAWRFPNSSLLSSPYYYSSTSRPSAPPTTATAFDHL

With `CC1CCCN(C(=O)c2ccncc2)C1` (stereo not given) the IC50 (Protein skinhead-1) was > 100 µM (inactive).

For `COc1cccc2cc(C(C)N(CCCN3CCOCC3)C(=O)Nc3ccccc3)oc12` (stereo not given), the EC50 [1] was > 112 µM (not active) and the EC50 [2] was > 112 µM (not active).

In the case of `Cc1ccc(S(=O)(=O)Nc2c(C(=O)O)[nH]c3ccccc23)c(C)c1`, the AC50 [3] is reported as 12.7 µM (active).

For `CCN1CCN(C(=O)c2cc(-c3ccco3)nc3ccccc23)CC1`, the IC50 [4] was > 20 µM (inactive).

With `Cc1ccccc1NC(=O)CSC1=C(C#N)C(c2ccsc2)CC(=O)N1` (stereo not given) the IC50 (Protein skinhead-1) was > 100 µM (inactive).

With `Cc1ccc(S(=O)(=O)CCc2nnc(NC(=O)CCl)s2)cc1C` the EC50 (BJ [5]) was 3.06 µM (active), the EC50 (BJ [6]) was 14.7 µM (active) and the EC50 (BJ [7]) was > 150 µM (not active). For the same compound, the EC50 [8] was 10.5 µM (active).

For `CCCc1nc2ccccc2c(=O)n1-c1ccc(OC)cc1`, the IC50 (Protein skinhead-1) was > 100 µM (inactive) and the AC50 (Cytochrome P450 2D6) was 14.1 µM (inconclusive).

In the case of `COCCOC(=O)c1[nH]c2c(c1C)C(=O)CC(c1ccccc1)C2` (stereo not given), the EC50 [9] is reported as 8.73 µM (inconclusive), the EC50 (BJ [5]) is reported as 2.62 µM (inconclusive) and the EC50 [10] is reported as 10.6 µM (active). The EC50 [11] was 4.34 µM (active), the EC50 (BJ [6]) was 4.01 µM (active) and the EC50 (BJ [7]) was 1.79 µM (active). The EC50 [8] was 2 µM (active).

For `N#CCC(=O)Nc1ccc(C(=O)NCc2ccccn2)cc1`, the AC50 [3] was 2.41 µM (active).

With `Cc1ccc2sc(NNC(=O)c3ccc4c(c3)OCCO4)nc2c1C` the EC50 [12] was 13 µM (active), the EC50 (Streptokinase A) was > 150 µM (not active) and the EC50 (Streptococcus) was 18.3 µM (active). The IC50 (H9c2) was 32.5 µM (inactive).

With `CC(C)C[C@@H]1CN=C(N)N1C[C@@H]1CCCN1C[C@H](C)N1C[C@@H](Cc2ccccc2)N(CCc2ccc(Cl)c(Cl)c2)C1=N` the IC50 [4] was > 20 µM (inactive).

In the case of `CCOC(=O)N1CCN(C(=O)Cc2ccc(-n3c(=S)[nH]c4ccccc4c3=O)cc2)CC1`, the IC50 [4] is reported as > 20 µM (inactive).

For `CC1=CC(C)CC(C)OC(=O)CC(c2ccc(O)cc2)NC(=O)C(Cc2c(Br)[nH]c3ccccc23)N(C)C(=O)C(C)NC(=O)C(C)C1` (stereo not given), the AC50 [13] was 4.09 µM (active) and the AC50 (Paired box protein Pax-8) was < 0.26 µM (active).

For `CC1CCCC(NC(=O)CSc2ncnc3ccccc23)C1C` (stereo not given), the IC50 [4] was > 20 µM (inactive).

With `CC(=O)Nc1cc(-c2cccc(NS(C)(=O)=O)c2)cn2c(-c3cccc(C(C)=O)c3)cnc12` the IC50 (H9c2) was 12.8 µM (active).

In the case of `Cn1ncc(Cl)c1C(=O)N/N=C/c1ccccn1`, the IC50 (H9c2) is reported as 71.6 µM (inactive).

With `COc1cccc(/C=N/Nc2ncnc3scc(-c4ccccc4)c23)c1OC` the IC50 (H9c2) was > 79 µM (inactive).

In the case of `C[C@@H]1CCCCO[C@@H](CN(C)Cc2ccc(Cl)c(Cl)c2)[C@H](C)CN([C@@H](C)CO)C(=O)c2cc(NC(=O)Cc3ccccc3)ccc2O1`, the AC50 (Paired box protein Pax-8) is reported as 4.54 µM (active).

In the case of `CCNc1nc(Cl)nc(NC(C)C)n1` [ATRAZINE], the EC50 [1] is reported as > 112 µM (not active) and the EC50 [2] is reported as > 112 µM (not active).
